Several values for one entry are separate records, joined by “and”; a condition that tells them apart may be missing. Equal entries are not always repeated.
Assays:
PIM2 [1] = biological target: T1, PIM2 (Homo sapiens, UniProt Q9P1W9); assay: Biochemical radiolabeled ATP kinase assay (Reaction Biology), PIM2; settings: 10 μM ATP
T1 construct: purchased ProQinase, Freiburg, Germany 0223-0000-1
From the text: Two different assays for measuring kinase inhibitor activity were employed for messing the effectiveness of compounds of the present disclosure for inhibiting PIM kinases. […] The second assay used was Perkin Elmer's LANCE® Ultra kinase assay which uses a ULight™-labeled peptide substrate and an appropriate Europium-labeled anti-phospho antibody. When the substrate becomes phosphorylated by a kinase of interest, the phosphorylated site on the substrate is recognized by the Europium-labeled anti-phospho antibody. […]
The standard protocol used for PIM3 was performed by Reaction Biology Corporation (Malvern, Pa.) using a capture assay performed in 20 mM HEPES at pH 7.5 containing 10 mM MgCl2, 10 mM MnCl2, 1 mM EGTA, 0.02% Brij35, 0.02 mg/mL BSA, 0.1 mM Na3VO4, 2 mM DTT, 0.02% Brij35, 10 μM ATP, and 20 μM peptide substrate […]. […] The bound ^33P-peptide substrate was quantified by scintillation counting and the disintegrations per minute (dpm) obtained, being directly proportional to the amount of ^33P-peptide produced by PIM3, were used to determine the IC50 for each compound. […]
The inhibitory activity of each compound against PIM kinases was measured with the radioisotope filter binding assay, a type of substrate phosphorylation assays, available at Reaction Biology Corporation (Mavern, Pa.). […]

PIM2 [2] = biological target: T1, PIM2; assay: LANCE Ultra kinase assay, PIM2; format: biochemical
From the text: (§1) The second assay used was Perkin Elmer's LANCE® Ultra kinase assay which uses a ULight™-labeled peptide substrate and an appropriate Europium-labeled anti-phospho antibody. When the substrate becomes phosphorylated by a kinase of interest, the phosphorylated site on the substrate is recognized by the Europium-labeled anti-phospho antibody. […] The intensity of light emission is proportional to the level of ULight peptide phosphorylation. A kinase inhibitor reduces the FRET signal, thus providing an accurate and sensitive measure of inhibition potency.
(§2) The assay was performed in 384-well plates in two steps: PIM kinases were mixed with the ULight-substrate (CREBtide) in buffer and incubated for 10 min. Subsequently, ATP and molecules of the present disclosure were added in a kinase buffer at the appropriate concentration and the reactions were incubated for 1 hour, at room temperature in the dark. • After 1 h EDTA was added to stop the kinase reaction, Eu-W1024-labeled anti-phosphoserine-CREB (Ser133) Antibody (anti-phosphoCREBtide specific antibody) was added to the reaction in LANCE Detection buffer. The mixture was allowed to incubate for 30 min to allow binding of the antibody to the phosphorylated site before the plate was read using a Tecan microplate reader
(§3) Kinase Assay Buffer—50 mM HEPES pH7.0.1 mM EGTA, 10 mM MgCl2, 0.01% BRU-35.
(§4) The inhibitory activity of each compound against PIM kinases was measured with the LANCE® Ultra Kinase Assays by ChemDiv, Inc. (San Diego, Calif.).

PIM3 = biological target: T2, PIM3 (Homo sapiens, UniProt Q86V86); assay: LANCE Ultra kinase assay, PIM3; format: biochemical; settings: LANCE assay
T2 construct: purchased SignalChem, Richmond, Canada P37-10BG
From the text: as §1, §2, §3, §4

Huh7 = assay: CellTiter-Glo cancer cell growth inhibition, Huh7; format: cell-based; settings: Homo sapiens, Huh-7, 72 h
From the text: The CellTiter-Glo® Luminescent Cell Viability Assay is a sensitive homogeneous method to determine the number of viable cells in culture, Detection is based on using the luciferase reaction to measure the amount of ATP from viable cells. The amount of ATP in cells correlates with cell viability. Within minutes after a loss of membrane integrity, cells lose the ability to synthesize ATP, and endogenous ATPases destroy any remaining ATP; thus the levels of ATP fall precipitously. The CellTiter-Glo® Reagent does three things upon addition to cells. It lyses cell membranes to release ATP; it inhibits endogenous ATPases, and it provides luciferin, luciferase and other reagents necessary to measure ATP using a bioluminescent reaction. The unique properties of a proprietary stable luciferase.
All assays were performed by Reaction Biology Corporation (Malvern, Pa.) or ChemDiv, Inc. (San Diego, Calif.). All cell lines were purchased from American Type Culture Collection (ATCC, Manassas, Va.), except Huh 7 (RIKEN, Toyo, Japan) and HepaRG (Life Technologies, Carlsbad, Calif.).
Stock solutions ([…]) were diluted with cell culture media to produce 500× serial dilutions and […] of final compound dilutions were added to cells in assay plates to screen a series of 10 doses starting at […]. Final DMSO concentration was 0.2%. Assay plates are centrifuged at 100 rpm, 1 minute and kept at 37° C., 5% CO2, humidified atmosphere. […] Luminescence intensity was measured for each well using the Tecan M 1000 microplate reader after 5 min of incubation with CellTiter-Glo Reagent. The number of viable cells in culture was determined based on quantitation of the ATP present in each culture well. […] The EC50 curves were plotted and […] values were calculated using the GraphPad Prism 4 program based on a sigmoidal dose-response equation.

T1 sequence (Q9P1W9 whole entry): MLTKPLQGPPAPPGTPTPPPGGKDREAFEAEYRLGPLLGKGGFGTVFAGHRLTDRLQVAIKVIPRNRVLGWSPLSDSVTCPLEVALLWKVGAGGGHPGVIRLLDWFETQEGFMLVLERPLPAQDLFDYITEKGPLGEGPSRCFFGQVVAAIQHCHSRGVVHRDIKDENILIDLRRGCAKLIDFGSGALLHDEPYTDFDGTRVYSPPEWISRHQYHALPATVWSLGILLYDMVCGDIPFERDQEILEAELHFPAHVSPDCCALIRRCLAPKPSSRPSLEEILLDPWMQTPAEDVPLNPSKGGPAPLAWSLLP

O=C1NC(=O)c2c1c1c3cc(F)c(O)cc3[nH]c1c1c2c2ccccc2n1CCN1CCOCC1 [Compound 18, 3-fluoro-2-hydroxy-12-(2-morpholin-4-ylethyl)-12,13-dihydro-5H-indolo[2,3-a]pyrrolo[3,4-c]carbazole-5,7(6H)-dione] was tested, and the IC50 (PIM2 [1]) was 7 nM and 7.4 nM, the IC50 (PIM2 [2]; ATP 1 mM) was 41 nM and the IC50 (PIM3; ATP 1 mM) was 9.5 nM. For the same compound, the EC50 (Huh7) was 41 nM.
O=C1NC(=O)c2c1c1c3ccccc3[nH]c1c1c2c2cc(F)c(O)cc2n1CCN1CCOCC1 [Compound 19, 3-fluoro-2-hydroxy-13-(2-morpholin-4-ylethyl)-12,13-dihydro-5H-indolo[2,3-a]pyrrolo[3,4-c]carbazole-5,7(6H)-dione] gave an IC50 (PIM2 [1]) of 6.7 nM, an IC50 (PIM2 [2]; ATP 0.1 mM) of 3.2 nM and an IC50 (PIM2 [2]; ATP 1 mM) of 4.9 nM. For the same compound, the IC50 (PIM3; ATP 0.1 mM) was 1 nM, the IC50 (PIM3; ATP 1 mM) was 4.3 nM and the EC50 (Huh7) was 80 nM.

— patent US20220274997A1, “PIM KINASE INHIBITOR COMPOSITIONS AND USES THEREOF” (Snap Bio, Inc., priority 2019, published 2022)
